{"source": "patent US10729759B2", "about": "“Fluorocarbon-linked peptide formulation” (priority 2010, dated 2020)", "key": {"[1]": {"type": "physicochemical", "conditions": "1.33% mannitol, 0.22 μm PVDF filter; for YIELD % of each FCP following sterile filtration, MIX 2: MIX 2 dispersed in water"}, "[2]": {"type": "physicochemical", "conditions": "for Percentage acetic acid (% v/v): minimum concentration for acceptable dispersibility and solubility: FCP 2 μmol/ml after acetic acid dispersion; for Visual appearance after dispersion: at the listed acetic acid concentration, FCP 2 μmol/ml", "experimental": "In order to limit the concentration of acetic acid downstream in the formulation process and in the final product, the lowest concentration of acetic acid in water to achieve efficient dispersion and maintain visible solubility was determined for each fluorocarbon-linked peptide. When using mannitol as a cryprotectant, it is important to minimize the acetic acid concentration at the lyophilisation stage in order to achieve a stable and amorphous freeze-dried product. The minimum acetic acid concentration to achieve acceptable dispersibility and solubility of the individual fluorocarbon-linked peptides was determined. The final concentration of fluorocarbon-linked peptide after initial acetic acid dispersion was 2 μmol/ml and after dilution with mannitol, 0.250 μmol/ml."}, "[3]": {"conditions": "for Ease of solubility, Cycle 1 Vortexing: 10 mg net/ml in 10% (FCP1, 2, 4, 5) or 80% (FCP9, 8) acetic acid; for Ease of solubility, Cycle 1 Sonication / Ease of solubility, Cycle 2 Sonication / Ease of solubility, Cycle 2 Vortexing / Ease of solubility, Cycle 3 Sonication / Ease of solubility, Cycle 3 Vortexing: 10 mg net/ml in 10% or 80% acetic acid; for Visual appearance after dispersion: 10 mg net/ml in AcOH 10% or 80%"}, "[4]": {"type": "physicochemical", "conditions": "for Further dilution in Mannitol:Water Solubility: FCP 0.167 mM, 1.33% (w/v) mannitol, cloudiness / particulates; for Dispersion in Water Solubility: FCP 1.333 mM in water, vortexed and sonicated, cloudiness (Clear/Cloudy−/Cloudy/Cloudy+) / particulates", "experimental": "The solubility of each FCP in water was assessed. Each FCP was dispersed in 300 μl of water to a final concentration of 1.333 mM and vortexed and sonicated. The typical dispersion conditions were four sequences of three minutes bath sonication interspersed by 30 seconds vortexing. After inspection, the resulting solution was diluted with a mannitol solution (a candidate lyophilisation medium, final concentration of peptide 0.167 mM, 1.33% (w/v) mannitol). Solubility was assessed by visual observation of the cloudiness of the resulting dispersion (scaled: Clear/Cloudy−/Cloudy/Cloudy+) and presence of particulates. […]"}}, "note": "“Also recorded” adds a separate entry of the source. Read-outs that look alike come from different tables or passages of the source."}
{"smiles": "CC[C@H](C)[C@H](NC(=O)[C@@H]1CCCN1C(=O)[C@H](C)NC(=O)[C@@H](N)CCCCNC(=O)CCC(F)(F)C(F)(F)C(F)(F)C(F)(F)C(F)(F)C(F)(F)C(F)(F)C(F)(F)F)C(=O)N[C@@H](CCSC)C(=O)N[C@@H](Cc1ccccc1)C(=O)N[C@@H](CO)C(=O)N[C@@H](CC(N)=O)C(=O)N[C@@H](CCCCN)C(=O)N[C@@H](CCSC)C(=O)N[C@@H](C)C(=O)N[C@@H](CCCNC(=N)N)C(=O)N[C@@H](CC(C)C)C(=O)NCC(=O)N[C@@H](CCCCN)C(=O)NCC(=O)N[C@@H](Cc1ccc(O)cc1)C(=O)N[C@@H](CCSC)C(=O)N[C@@H](Cc1ccccc1)C(=O)N[C@@H](CCC(=O)O)C(=O)N[C@@H](CO)C(=O)N[C@@H](CCCCN)C(=O)N[C@@H](CCCNC(=N)N)C(=O)N[C@@H](CCSC)C(=O)N[C@@H](CCCCN)C(=O)N[C@@H](CC(C)C)C(=O)N[C@@H](CCCNC(=N)N)C(=O)N[C@H](C(=O)N[C@@H](CCC(N)=O)C(=O)N[C@H](C(=O)N1CCC[C@H]1C(=O)N[C@@H](C)C(=O)N[C@@H](CCC(=O)O)C(=O)N[C@@H](CCSC)C(=O)N[C@@H](CC(C)C)C(=O)N[C@@H](C)C(N)=O)[C@@H](C)CC)[C@@H](C)O", "note": "[FCP2]", "values": [{"measurement": "YIELD % of each FCP following sterile filtration, MIX 2", "setting": "[1]", "value": 97.3, "unit": "%"}, {"measurement": "Percentage acetic acid (% v/v): minimum concentration for acceptable dispersibility and solubility", "setting": "[2]", "value": 10, "unit": "% v/v"}, {"measurement": "Visual appearance after dispersion", "setting": "[2]", "value": "Clear"}, {"measurement": "Ease of solubility, Cycle 1 Vortexing", "setting": "[3]", "value": "Clear"}, {"measurement": "Ease of solubility, Cycle 1 Sonication", "setting": "[3]", "value": "Clear"}, {"measurement": "Ease of solubility, Cycle 2 Sonication", "setting": "[3]", "value": "Clear"}, {"measurement": "Ease of solubility, Cycle 2 Vortexing", "setting": "[3]", "value": "Clear"}, {"measurement": "Ease of solubility, Cycle 3 Sonication", "setting": "[3]", "value": "Clear"}, {"measurement": "Ease of solubility, Cycle 3 Vortexing", "setting": "[3]", "value": "Clear"}, {"measurement": "Visual appearance after dispersion", "setting": "[3]", "value": "Clear"}, {"measurement": "Further dilution in Mannitol:Water Solubility", "setting": "[4]", "value": "fully soluble; also recorded: Clear/No Particulates"}, {"measurement": "Dispersion in Water Solubility", "setting": "[4]", "value": "Cloudy−/No Particulates"}]}
{"smiles": "CC[C@H](C)[C@H](NC(=O)[C@H](CC(C)C)NC(=O)[C@H](C)NC(=O)[C@H](CO)NC(=O)[C@H](CCCNC(=N)N)NC(=O)[C@H](C)NC(=O)[C@H](CC(C)C)NC(=O)[C@H](Cc1ccccc1)NC(=O)[C@@H](NC(=O)[C@H](CC(C)C)NC(=O)[C@H](CC(=O)O)NC(=O)[C@H](CCC(=O)O)NC(=O)[C@@H](NC(=O)[C@H](CCC(=O)O)NC(=O)[C@H](C)NC(=O)[C@H](CC(N)=O)NC(=O)CNC(=O)[C@@H]1CCCN1C(=O)[C@H](CC(N)=O)NC(=O)[C@H](CCCNC(=N)N)NC(=O)[C@H](CO)NC(=O)[C@H](CCC(=O)O)NC(=O)[C@H](CCCNC(=N)N)NC(=O)[C@@H](NC(=O)[C@H](CCC(N)=O)NC(=O)[C@H](CC(=O)O)NC(=O)[C@@H](N)CCCCNC(=O)CCC(F)(F)C(F)(F)C(F)(F)C(F)(F)C(F)(F)C(F)(F)C(F)(F)C(F)(F)F)C(C)C)[C@@H](C)CC)[C@@H](C)CC)C(=O)N[C@@H](CC(C)C)C(=O)N[C@@H](CCCNC(=N)N)C(=O)NCC(=O)N[C@@H](CO)C(=O)N[C@H](C(=O)N[C@@H](C)C(=O)N[C@@H](Cc1c[nH]cn1)C(=O)N[C@@H](CCCCN)C(=O)N[C@@H](CO)C(N)=O)C(C)C", "note": "[FCP4]", "values": [{"measurement": "YIELD % of each FCP following sterile filtration, MIX 1", "setting": "[1]; MIX 1 dispersed in water", "value": 25.1, "unit": "%"}, {"measurement": "YIELD % of each FCP following sterile filtration, MIX 2", "setting": "[1]", "value": 82.3, "unit": "%"}, {"measurement": "Percentage acetic acid (% v/v): minimum concentration for acceptable dispersibility and solubility", "setting": "[2]", "value": 10, "unit": "% v/v"}, {"measurement": "Visual appearance after dispersion", "setting": "[2]", "value": "Clear"}, {"measurement": "Ease of solubility, Cycle 1 Vortexing", "setting": "[3]", "value": "Clear"}, {"measurement": "Ease of solubility, Cycle 1 Sonication", "setting": "[3]", "value": "Clear"}, {"measurement": "Ease of solubility, Cycle 2 Sonication", "setting": "[3]", "value": "Clear"}, {"measurement": "Ease of solubility, Cycle 2 Vortexing", "setting": "[3]", "value": "Clear"}, {"measurement": "Ease of solubility, Cycle 3 Sonication", "setting": "[3]", "value": "Clear"}, {"measurement": "Ease of solubility, Cycle 3 Vortexing", "setting": "[3]", "value": "Clear"}, {"measurement": "Visual appearance after dispersion", "setting": "[3]", "value": "Clear"}, {"measurement": "Further dilution in Mannitol:Water Solubility", "setting": "[4]", "value": "fully soluble; also recorded: Clear/No Particulates"}, {"measurement": "Dispersion in Water Solubility", "setting": "[4]", "value": "fully soluble; also recorded: Clear/No Particulates"}]}
